This passage reports melting point, IC50 and EC50 results from patent US7569582B2, “Aminotropane derivatives, preparation thereof and therapeutic use thereof” (Sanofi-Aventis, priority 2004, dated 2009).

A word on the melting point: it is the temperature of the solid-liquid transition. In general, IC50 refers to the concentration at which inhibition is half-maximal. What is called EC50 is the concentration at which the effect is half-maximal.

Structures can show the parent of a compound that is named as a salt. Bounds are passed on as bounds.

The target of series [1] is T1, human MC4 receptor (Homo sapiens, UniProt P32245).
T1 construct: host or cells: CHO-K1
The series is described as follows: Affinity assay: displacement of [125I]-[Nle4,D-Phe7]-α-MSH binding to membranes of CHO-K1 cells expressing hMC4 (SPA). The following applies: displacement of specific radioligand binding by 50%; radioligand 100 pM; read-out: IC50 with respect to the MC4 receptor. The method, then:
This affinity assay is carried out by measuring the binding of [^125I]-[Nle^4-D-Phe^7]-[…]-MSH to cell membranes. The displacement of this radioligand is used to identify inhibitors of the specific binding to recombinant melanocortin receptors.
For this assay, membranes prepared from CHO-K1 cells expressing the human MC4 receptor at high density (Euroscreen) or membranes, that were purchased (Perkin Elmer Life Sciences, Receptor Biology), of HEK-293 cells expressing hMC3 receptors were used. CHO-K1 cells transfected with the hMC4 receptor gene (Euroscreen) are seeded into DMEM/Nutrient Mix F12 culture medium containing 10% foetal calf serum (Biowhittaker), 1% sodium pyruvate, 1% L-glutamine, 1% non-essential amino acids, 0.4 mg/ml geneticin (G418) and 0.5% PenStrep, these products being provided by Gibco/BR1, except the calf serum. At 80% confluency, the cells are scraped off and the cell pellets are frozen at −80° C.
A tube of cells (approximately 70×10^6 cells) is thawed on ice and resuspended in 10 ml of binding buffer [25 mM HEPES, pH 7.0, 1 mM MgCl2, 1.5 mM CaCl2, 100 mM NaCl, 1 mM 1,10-phenanthroline and 1 tablet of Complete^TR (protease inhibitor from Roche) in 50 ml of buffer] using a polytron for 20 seconds. […] The nonspecific binding is defined by NDP-[…]MSH at 10^−7 M. The total binding is measured by the number of counts per minute in the presence of the radioligand alone. […]
In general terms: Displacement assays read how much labelled ligand stays bound in the presence of the test substance.

A further series deals with T2, human MC3 receptor (Homo sapiens, UniProt P41968).
T2 construct: expressed in transfected cells; host or cells: CHO(dhfr-)
The series is described as follows: Functional agonist assay: cAMP formation in CHO(dhfr-) cells expressing the human MC3 receptor. The series is classed as cell-based. The following applies: 1 hour incubation, 50% of the maximum stimulation obtained with the compound, read-out: EC50 with respect to the MC3 receptor. The method, then:
(§1) A functional assay is used to differentiate between the agonist activity and the antagonist activity. For this, the formation of cyclic adenosine monophosphate (cAMP) generated by activation of the MC3 receptor or of the MC4 receptor is assayed.
CHO(dhfr-) cells expressing the human MC3 receptor are seeded into MEM Eagle culture medium (Sigma) containing 10% of dialysed calf serum, 1% L-glutamine, 1% sodium pyruvate, 20 mg/500 ml L-proline, 0.3 mg/ml Geneticin and 0.5% PenStrep, these products being provided by Gibco/BRI, except for the dialysed calf serum (Cambrex) and the L-proline (Sigma).
(§2) The compounds to be tested (diluted in 10% DMSO), in an amount of 10 μl at a concentration of 10 times the final concentration, are added to the plates of cells (final volume=100 μl/well). After incubation for 1 hour (37° C., 5% CO2), the amount of cAMP is assayed using Tropix kits (Appelera) according to the supplier's documentation. The intrinsic activity of the compounds is calculated by comparing the stimulation of cAMP by these compounds to the stimulation induced by 30 nM of NDP[…]MSH (maximum of 100%). The EC50 value for the compounds corresponds to the concentration which produces 50% of the maximum stimulation obtained with this compound.
A general note: Changes in cAMP serve as a functional read-out for many G protein-coupled receptors.

Series [2] has as its target T1, human MC4 receptor. The experiment in a line: Functional agonist assay: cAMP formation in CHO-K1 cells expressing the human MC4 receptor. The settings on record: 1 hour incubation, 50% of the maximum stimulation obtained with the compound, read-out: EC50 with respect to the MC4 receptor. The class given is cell-based. The method, then:
as §1
CHO-K1 cells, expressing the human MC4 receptor at a moderate density (Euroscreen), are seeded into DMEM/Nutrient Mix F12 culture medium (Gibco/BR1) containing 10% of foetal calf serum, 0.5% sodium pyruvate, 1% L-glutamine, 1% non-essential amino acids, 200 mg/l hygromycin B and 0.5% PenStrep, these products being provided by Gibco/BR1, except the calf serum (Biowhittaker) and hygromycin B (Sigma).
as §2

T1 sequence (P32245 whole entry): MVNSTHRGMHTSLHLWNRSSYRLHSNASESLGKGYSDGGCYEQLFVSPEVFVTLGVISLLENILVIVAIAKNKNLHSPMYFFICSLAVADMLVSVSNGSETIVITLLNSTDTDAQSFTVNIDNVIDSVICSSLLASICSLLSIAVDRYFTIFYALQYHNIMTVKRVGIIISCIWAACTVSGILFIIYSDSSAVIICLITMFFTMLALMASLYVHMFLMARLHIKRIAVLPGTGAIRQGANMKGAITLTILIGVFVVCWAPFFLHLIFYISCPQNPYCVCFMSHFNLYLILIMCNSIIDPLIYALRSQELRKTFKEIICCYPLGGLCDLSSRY
T2 sequence (P41968 whole entry): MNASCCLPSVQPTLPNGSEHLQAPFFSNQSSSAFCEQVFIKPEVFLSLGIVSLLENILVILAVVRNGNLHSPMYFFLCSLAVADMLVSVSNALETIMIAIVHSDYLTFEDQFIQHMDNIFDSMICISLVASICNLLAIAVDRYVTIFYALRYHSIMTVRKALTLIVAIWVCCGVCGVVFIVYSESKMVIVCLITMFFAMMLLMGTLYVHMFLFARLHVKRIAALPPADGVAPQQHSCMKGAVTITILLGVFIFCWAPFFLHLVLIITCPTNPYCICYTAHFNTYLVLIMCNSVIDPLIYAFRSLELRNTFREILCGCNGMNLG

Turning to `CCN(CC)C(=O)N(C1CCCCC1)C1CC2CCC(C1)N2C(=O)[C@@H](Cc1ccc(Cl)cc1)NC1CCNC1` (stereo partly shown) (as salt: HCl), the melting point turned out to be 220 °C. Molecule `CCN(CC)C(=O)N(C1CCCCC1)C1CC2CCC(C1)N2C(=O)[C@@H](Cc1ccc(Cl)cc1)NCCN` (stereo partly shown) (as salt: HCl) yielded a melting point of 105 °C. Turning to `CCN(CC)C(=O)N(C1CCCCC1)C1CC2CCC(C1)N2C(=O)[C@@H](Cc1ccc(Cl)cc1)NCCCN` (stereo partly shown) (as salt: HCl), the melting point is 215 °C.

`CCN(CC)C(=O)N(C1CCCCC1)C1CC2CCC(C1)N2C(=O)[C@@H](Cc1ccc(Cl)cc1)NC(C)/C=N/O` (stereo partly shown) (as salt: HCl) gave a melting point of 132 °C. Still for that read-out and setting: then `CCN(CC)C(=O)N(C1CCCCC1)C1CC2CCC(C1)N2C(=O)[C@@H](Cc1ccc(Cl)cc1)NC1CNC1` (stereo partly shown) (as salt: HCl), with 170 °C. The same measure, in the same setting: then `CCN(CC)C(=O)N(C1CCCCC1)C1CC2CCC(C1)N2C(=O)[C@@H](Cc1ccc(Cl)cc1)NC1CCSC1` (stereo partly shown) (as salt: HCl), with greater than 200 °C; and `CCN(CC)C(=O)N(C1CCCCC1)C1CC2CCC(C1)N2C(=O)[C@@H](Cc1ccc(Cl)cc1)NC1CCC(N)CC1` (stereo partly drawn) (as salt: HCl) [compound 3, N-{8-[N-(4-aminocyclohexyl)-4-chloro-D-phenylalanyl]-8-azabicyclo[3.2.1]oct-3-yl}-N-cyclohexyl-N′,N′-diethylurea], with 208 °C. Consider `CCN(CC)C(=O)N(C1CCCCC1)C1CC2CCC(C1)N2C(=O)[C@@H](Cc1ccc(Cl)cc1)NC1CCC(N)CC1` (stereo partly drawn) [compound 3, N-{8-[N-(4-aminocyclohexyl)-4-chloro-D-phenylalanyl]-8-azabicyclo[3.2.1]oct-3-yl}-N-cyclohexyl-N′,N′-diethylurea], for which the IC50 at human MC4 receptor [1] turned out to be 280 nM. Further, the EC50 on human MC3 receptor is 330 nM; at human MC4 receptor [2] it was 28 nM.
